The text below walks through data of patent US11014961B2, “Self-labeling miniproteins and conjugates comprising them” (priority 2017, dated 2021).

Residues, ends and D or L forms follow the SMILES beside them. No end group written: not given here. *: point of attachment. X1 = O=C(CCCC[C@@H]1SC[C@@H]2NC(=O)N[C@@H]21)NCCCC[C@H](NC(=O)CCOCCOCCOCCOCCOCCOCCOCCOCCOCCOCCOCCOCCSc1c(F)c(F)c(Sc2c(F)c(F)c(*)c(F)c2F)c(F)c1F)C(=O)O

One data set deals with T1, proteinase K (Parengyodontium album, UniProt P06873).
T1 construct: purchased Amresco
The data set is described as follows: Protease digestion with proteinase K (LC-MS fraction remaining). The class given is in vitro ADME. To be noted: 100 μM peptide; for protease stability in presence of CA (noncovalent): with 10×CA (1 mM CA). The protocol: Reactions were performed using 100 μM peptide with […] of proteinase K for general cleavage with the addition of 1 mM CA for C11A and C11S digestions. Reactions were quenched with 49.75% water, 49.75% ACN and 0.5% TFA at selection time point and analyzed by LCMS. TIC-based integrated peak areas were used to determine the amount of material in a given time point normalized to the starting amount. These normalized values there then concerted to fraction remaining and plotted as shown.

Data set [1] in a line: Second order rate constant of the reaction between miniprotein (MP) and capture agent (CA), LC-MS TIC peak integration. The data set is classed as biochemical. Particulars: for Second order rate constant: 0.1 mM MP, 0.5 mM CA; for reactivity with the CA (in words) / fold increase of second order rate constant relative to MP01: standard reaction conditions; for Rate: Table 4, reaction rates of self-labeling miniprotein sequences.

Data set [2] is described as follows: Thermal melting followed by circular dichroism at 222 nm. The class given is physicochemical. Particulars: CD at 222 nm. The protocol:
All experiments were performed at room temperature (˜23.5° C.) using a Jasco J-1500 spectrometer at MIT's Biophysical Instrumentation Facility (BIF). General conditions used were 10 mM sodium phosphate buffer at pH 7.45 with 5 mM TCEP (if a cysteine was present) with 50 μM peptide. CD measurements with C11S and C11A versions of Gen4 (SEQ ID NOs: 138 and 137, respectively) used the same conditions, without TCEP but with varying amount of CA (50 μM up to 500 μM depending on the desired mole ratio). Temperature melt data was obtained using a 0.5° C./minute ramp with data collected at 222 nm. […] For CD of Gen 1 (MP01; SEQ ID NO: 13), Gen1 H19L (MP01-H19L; SEQ ID NO: 62), Gen1 3 ala (MP01-T8/D10/S14A; SEQ ID NO: 69), Gen2 (MP01-Gen2; SEQ ID NO: 71) and Gen3_1 (MP01-Gen3_1; Gen 2-A17E; SEQ ID NO: 116) in their labeled and nonlabeled states, data was obtained in 12.5 mM HEPES, 50 mM NaCl, 2.5 mM MgCl2 and 2.5 mM CaCl2 at pH 7.45 with 5 mM TCEP at 50 µM peptide with or without ˜55 μM CA that had reacted for ˜2 days at room temperature. The CA labeled versions were not purified post reaction and were analyze in their reaction mixture.
Lacking an apparent cysteine pKa modulation, the basis for Gen4's high reactivity again came into question. Both C11A (SEQ ID NO: 134) and C11S (SEQ ID NO: 135) variants were synthesized and assayed them for CA-mediated structural alteration via CD. […]
For orientation: CD spectra are sensitive to the conformation of chiral molecules.

Setting [3] is: 5 mM TCEP, 1× selection buffer pH 7.4, RT, a: average of three MP concentrations, c: labeled 1-3 times, d: labeled 1-2 times.
[4] abbreviates: 5 mM TCEP, 1× selection buffer pH 7.4, RT.

T1 sequence (P06873 106-384): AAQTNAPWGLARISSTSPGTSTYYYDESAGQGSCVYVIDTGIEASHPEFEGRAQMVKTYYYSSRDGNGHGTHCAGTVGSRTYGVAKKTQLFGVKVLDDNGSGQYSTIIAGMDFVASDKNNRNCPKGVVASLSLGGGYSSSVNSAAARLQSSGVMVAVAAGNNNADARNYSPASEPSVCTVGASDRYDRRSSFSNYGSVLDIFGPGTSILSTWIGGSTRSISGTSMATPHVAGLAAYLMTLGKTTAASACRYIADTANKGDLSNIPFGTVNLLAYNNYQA

Turning to `CSCC[C@H](NC(=O)[C@H](CCCCN)NC(=O)[C@H](Cc1ccc(O)cc1)NC(=O)[C@H](CCCCN)NC(=O)[C@H](CCC(N)=O)NC(=O)[C@H](CC(N)=O)NC(=O)[C@@H](N)CCSC)C(=O)N[C@@H](C)C(=O)N[C@@H](CCCCN)C(=O)N[C@@H](C)C(=O)N[C@@H](CSc1c(F)c(F)c(Sc2c(F)c(F)c(SCCOCCOCCOCCOCCOCCOCCOCCOCCOCCOCCOCCOCCC(=O)N[C@@H](CCCCNC(=O)CCCC[C@@H]3SC[C@@H]4NC(=O)N[C@@H]43)C(=O)O)c(F)c2F)c(F)c1F)C(=O)N[C@@H](Cc1ccccc1)C(=O)N[C@@H](Cc1ccccc1)C(=O)N[C@@H](C)C(=O)N[C@@H](Cc1ccccc1)C(=O)N[C@@H](CC(C)C)C(=O)N[C@@H](CCC(=O)O)C(=O)N[C@@H](Cc1c[nH]cn1)C(=O)N[C@@H](CC(C)C)C(=O)N[C@@H](CCCCN)C(=O)N[C@@H](CCCCN)C(=O)N[C@@H](CCCNC(=N)N)C(=O)N[C@@H](CCCCN)C(=O)N[C@@H](CC(C)C)C(=O)N[C@@H](Cc1ccc(O)cc1)C(=O)N1CCC[C@H]1C(=O)N[C@@H](CCSC)C(=O)N[C@@H](CO)C(=O)NCC(N)=O` [Gen4-CA] (H-MNQKYKMAKAC(X1)FFAFLEHLKKRKLYPMSG-NH2), the protease stability entry with proteinase K is listed as “significantly increased protease resistance”.

As for KMTKDCFFSFL-NH2 [MP01-T, KMTKDCFFSFL], in data set [1] (setting [3]), the “Second order rate constant” value came out at 0.06 M⁻¹ s⁻¹. Moreover, in data set [1], the “reactivity with the CA (in words)” value is “severely diminished activity”.

“MGHLHICMVWRVNTSGHILSVGHKSYSSHKTG-NH2 [MP13]” yielded a Rate in data set [1] of 2.41 M⁻¹ s⁻¹.

As for “MGIVHNATRFPKRCFYSFIATRQSKNSIRVSG-NH2 [MP06]”, the “Second order rate constant” value in data set [1] (setting [3]) turned out to be 0.11 ± 0.01 M⁻¹ s⁻¹.

As to “MHAKYKMAKACFFAFLAHLKKRKLYPMSG-NH2 [Gen 2-Q3A]”, the “reactivity with the CA (in words)” value in data set [1] is reported as “no alteration”.

In data set [1], “MHHYCSKMKRRILMHYLFANTMAHRDLGTNG-NH2 [MP15]” came in with a Rate of 10.09 M⁻¹ s⁻¹.

In data set [1], “MHLRMIRYLNRRRHLCHVVEIRHGLFASREIG-NH2 [MP16]” displayed a Rate of 0.19 M⁻¹ s⁻¹.

For the compound “MHMHKTTSYRIRVLVGVDVYRMSHTCLTSSSG-NH2 [MP19]”, the Rate in data set [1] came out at 0.21 M⁻¹ s⁻¹.

Turning to “MHQKYKMAAACFFAFLAHLKKRKLYPMSG-NH2 [Gen 2-K9A]”, the “reactivity with the CA (in words)” value in data set [1] is on record as “no alteration”.

Turning to “MHQKYKMAKACFFAFLAHHKKRKLYPMSG-NH2 [triple alanine variant]”, in data set [1] (setting [4]), the “Second order rate constant” value was found to be 1.82 M⁻¹ s⁻¹. Further, the “fold increase of second order rate constant relative to MP01” value in data set [1] was determined as 6.3 fold.

Take “MHQKYKMAKACFFAFLAHLAKRKLYPMSG-NH2 [Gen 2-K20A]”: the “reactivity with the CA (in words)” value in data set [1] is “no alteration”.

Take “MHQKYKMAKACFFAFLAHLKKRKLYPMSG-NH2 [MP01-Gen2]”: the “fold increase of second order rate constant relative to MP01” value in data set [1] came out at 32.2 fold.

As for “MHQKYKMAKACFFAFLEHLKKRKLYPMSG-NH2 [Gen3_1]”, the “reactivity with the CA (in words)” value in data set [1] is on record as “increased the rate of reaction”.

For “MHQKYKMTKDCFFSFLAHLKKRKLYPMSG-NH2 [MP01-H19L]”, the “fold increase of second order rate constant relative to MP01” value in data set [1] is 7.5 fold.

Regarding “MHQKYKMTKDCFFSFLAHVKKRKLYPMSG-NH2 [MP01-H19V]”, the “reactivity with the CA (in words)” value in data set [1] is “progressively improved rate constants”.

Turning to “MHQKYKMTKDSFFSFLAHHKKRKLYPMSG-NH2 [SEQ ID NO: 91]”, in data set [1], the “reactivity with the CA (in words)” value is given as “all reactivity was lost”.

The compound “MHTSLRSRAKSHSRSFGKCASIYTRYLKMG-NH2 [MP20]” yielded a Rate in data set [1] of 1.22 M⁻¹ s⁻¹.

Turning to “MKTFSSDQRFSKKCYRIYFHKLRQRNHNTSVG-NH2 [MP07]”, in data set [1] (setting [3]), the “Second order rate constant” value is on record as 0.91 ± 0.14^a M^−1 s^−1.

In turn, “MLFMRLTKKTMATKFCPFRRKRKHRERRALYG-NH2 [MP27]” registered a Rate in data set [1] of 0.61 M⁻¹ s⁻¹.

As for “MNGHYPCYLITSVLVGATTSGVPVVVHLRVG-NH2 [MP17]”, in data set [1], the Rate is 0.11 M⁻¹ s⁻¹.

Take “MNQKYKMAKAAFFAFLEHLKKRKLYPMSG-NH2 [Gen4(C11A)]”: the “protease stability in presence of CA (noncovalent)” value at proteinase K is listed as “improved protease stability”.

As for “MNQKYKMAKACFFAFLAHLKKRKLYPMSG-NH2 [Gen3_2]”, the “reactivity with the CA (in words)” value in data set [1] was “increased the rate of reaction”.

“MNQKYKMAKACFFAFLEHLKKRKLYPMSG-NH2 [MP01-Gen4]”: in data set [1], the “reactivity relative to a random cysteine containing peptide” value is listed as ~4×10^3 times and the “second order rate constant relative to the initial MP01 scaffold” value is listed as about 100 times. The “reaction rate with ammonium sulfate” value in data set [1] (2 μM ammonium sulfate (so in the source)) was determined as 3.9 M⁻¹ s⁻¹. Moreover, the “reaction rate with sodium chloride” value in data set [1] (2 μM sodium chloride (so in the source)) was determined as 6.1 M⁻¹ s⁻¹. Besides, in data set [1] (2-3 M guanidinium chloride, pH 7.45), the “reactivity under denaturant guanidinium chloride” value is “near complete ablation of reactivity”. In data set [1] (trimethylamine N-oxide (TMAO) at 0.5 μM (so in the source)), the “rate constant with TMAO” value is about 9.7 M⁻¹ s⁻¹. The “rate constant with TMAO” value in data set [1] (trimethylamine N-oxide (TMAO) at 1 μM (so in the source)) was about 7.5 M⁻¹ s⁻¹. For the same compound, in data set [2] (4-95° C.), the “thermal melting behaviour (in words)” value is listed as “broad, gradually increasing trend”.

For “MNQKYKMAKASFFAFLEHLKKRKLYPMSG-NH2 [Gen4(C11S)]”, on proteinase K, the “protease stability in presence of CA (noncovalent)” value is “improved protease stability”. For the same compound, the “thermal melting behaviour (in words) with CA” value in data set [2] (50 μM peptide with 10×CA (500 μM)) is reported as “gradually increasing CD signal albeit with a shift to higher temperatures”.

In turn, “MNRIFHKRSTYQMVFGRCSDFTSTYHVLISYG-NH2 [MP25]” yielded a Rate in data set [1] of 0.25 M⁻¹ s⁻¹.

“MPNYGPLSPSQPSHGYTFWMVPIWDNSHNAAG-NH2 [MP02]”: the “Second order rate constant” value in data set [1] (footnote b: construct with the full length C-terminal region (-SGSLGHHHHHHRL)) is listed as “No Reaction^b”. Further, the “reactivity with the CA (in words)” value in data set [1] is “did not react”.

Take MQHEDLCTWYGFCPSGNFTPRNLRGDSDG [MP08]: the “Second order rate constant” value in data set [1] (setting [4]) is 0.04 M⁻¹ s⁻¹; in data set [1] (setting [3]), 0.04^d M^−1 s^−1.

“MQNSKHRPRRCLRLLPLLRGHLHRMFRERG-NH2 [MP21]” returned a Rate in data set [1] of 2.00 M⁻¹ s⁻¹.

In data set [1], “MRHYHLTCFQGFRIFRRTVDSLEMEISLG-NH2 [MP18]” came in with a Rate of 0.17 M⁻¹ s⁻¹.

As to MRPCARRDRTLWCPFDSPAWFLLSGFSCG [MP05], the “Second order rate constant” value in data set [1] (setting [4]) is 0.93 ± 0.11 M⁻¹ s⁻¹; in data set [1] (setting [3]), 0.93 ± 0.11^c M^−1 s^−1.

Regarding “MRRTPSTRARGRVFLLPTLRFFITLCNLNG-NH2 [MP24]”, the Rate in data set [1] turned out to be 0.02 M⁻¹ s⁻¹.

With “MRSTHQRVRRPRNLCSFKHKWLIKFLKTLTG-NH2 [MP22]”, the Rate in data set [1] was determined as 4.94 M⁻¹ s⁻¹.

Turning to “MRTPIKFAPRLSQPFCPFRKQHQLHLHPLIEG-NH2 [MP04]”, in data set [1] (setting [3]), the “Second order rate constant” value came out at 0.24 ± 0.01 M⁻¹ s⁻¹.

As to MRYIYVLRLKSWCGGASARSSPRSCATKLLG [MP09], the “Second order rate constant” value in data set [1] (setting [3]) is 0.52 ± 0.01^d M^−1 s^−1. For the same compound, the “initial rate (biphasic kinetics)” value in data set [1] (standard conditions, en route to being labeled twice) worked out at 0.52 M⁻¹ s⁻¹.

In data set [1], “MSSGTHYGILNMVIRCHLVKNQTSQMVVLTTG-NH2 [MP14]” gave a Rate of 0.12 M⁻¹ s⁻¹.

In data set [1], “MTATSSSTSRGCRPSTAQVVQRLRGLLLVVG-NH2 [MP26]” displayed a Rate of 0.07 M⁻¹ s⁻¹.

Turning to “MTSVTASLLMHFCPIRAHITNKPSFNPSG-NH2 [MP03]”, in data set [1] (setting [3]), the “Second order rate constant” value was determined as 0.04 M⁻¹ s⁻¹.

Take “MVKLSGKERTTRNCFFSFLASRRTKKFNNLSG-NH2 [MP12]”: the Rate in data set [1] was determined as 0.23 M⁻¹ s⁻¹.
